Structures are written as SMILES. Records with an inconclusive call do not appear. The source made the active and inactive calls.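 Rule for the calls: active = fitted curve of rescue activity rises past 40% within the tested concentration range, in every replicate run; inconclusive = replicate runs disagree, some active and some not; inactive = all replicate runs inactive, including effects in the opposite direction.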

Tested on in one assay: not listed separately
Nature of the assay: suppressors of statin-induced myotube ATP loss, dose response, cell-based, differentiated C2C12, luminescence, dry powder (AID 743336). As to conditions: C2C12 myotubes + simvastatin, ATP luminescence, 48 h; at 18 µM (top of the series).
Consider `C[C@H](CO)N1C[C@H](C)[C@H](CN(C)Cc2ccc3c(c2)OCO3)Oc2ccc(NC(=O)CCCCCC(=O)Nc3ccccc3N)cc2CC1=O`, for which the rescue activity was 27.2% (inactive).

Still in this assay, the particulars now being: C2C12 myotubes + simvastatin, ATP luminescence, 48 h; at 19.5 µM (top of the series).
For the molecule `COc1ccc(-c2ccc([C@@H]3[C@@H](C#N)N(C(=O)NC4CCCC4)[C@H]3CO)cc2)cc1`, the rescue activity was 12.8% (inactive).
With `N#C[C@H]1[C@@H](c2ccc(-c3cccc(F)c3)cc2)[C@H](CO)N1C(=O)NC1CCCC1`, the rescue activity was -7.45% (inactive).
As for `C[C@@H]1CN([C@H](C)CO)C(=O)Cc2cc(NC(=O)CCCCCC(=O)Nc3ccccc3N)ccc2O[C@@H]1CN(C)Cc1ccc(Oc2ccccc2)cc1`, the rescue activity is -50.8% (inactive).
Turning to `C[C@H]1CN([C@@H](C)CO)C(=O)c2cc(N(C)C)ccc2O[C@@H]1CN(C)Cc1ccc(C(=O)Nc2ccccc2N)cc1`, the rescue activity is 28.1% (inactive).
As to `N#C[C@H]1[C@H](c2ccc(-c3cccc(F)c3)cc2)[C@H](CO)N1C(=O)NC1CCCC1`, the rescue activity was 29.9% (inactive).
As to `CCCNC(=O)N1[C@H](C#N)[C@@H](c2ccc(C3=CCCCC3)cc2)[C@@H]1CO`, the rescue activity is 37.4% (inactive).
As for `N#C[C@@H]1[C@H](c2ccc(-c3cccc(F)c3)cc2)[C@@H](CO)N1C(=O)NC1CCCC1`, the rescue activity is -10.7% (inactive).
Take `O=C(C[C@H]1CC[C@@H]2[C@H](COC[C@@H](O)CN2Cc2ccc(Oc3ccccc3)cc2)O1)N1CCCCC1`: the rescue activity was 22.2% (inactive).
Turning to `C[C@H](CO)N1C[C@H](C)[C@H](CN(C)Cc2ccc(C(=O)Nc3ccccc3N)cc2)Oc2ccc(N(C)C)cc2C1=O`, the rescue activity was 6.09% (inactive).
For the molecule `N#C[C@@H]1[C@@H](c2ccccc2-c2ccc(F)cc2)[C@H](CO)N1C(=O)NC1CCCC1`, the rescue activity was 35.5% (inactive).
For the molecule `N#C[C@H]1[C@H](c2ccc(C#CCC3CCCC3)cc2)[C@@H](CO)N1C(=O)CN1CCOCC1`, the rescue activity is 28.6% (inactive).
For `CCCNC(=O)N1[C@H](CO)[C@H](c2ccccc2)[C@@H]1C#N`, the rescue activity was -1.71% (inactive).
On to `COc1ccc(C#Cc2cnc3c(c2)C(=O)N([C@H](C)CO)C[C@H](C)[C@H](CN(C)Cc2ccccc2)O3)cc1OC`, for which the rescue activity is 32.2% (inactive).
`N#C[C@@H]1[C@@H](c2ccc(-c3ccc(F)cc3)cc2)[C@H](CO)N1C(=O)Cc1ccccc1`: the rescue activity was 37.6% (inactive).
`C[C@H](CO)N1C[C@H](C)[C@H](CN(C)Cc2ccc(C(=O)Nc3ccccc3N)cc2)Oc2ccc(NC(=O)Nc3ccc(F)cc3)cc2CC1=O`: the rescue activity was -62.1% (inactive).
On to `N#C[C@H]1[C@H](c2ccc(C#Cc3ccc(F)cc3)cc2)[C@H](CO)N1c1nc(-c2ccccc2)cs1`, for which the rescue activity is 38.1% (inactive).
With `C/C=C/c1ccc([C@H]2[C@@H](CO)N(C(=O)NC3CCCC3)[C@H]2C#N)cc1`, the rescue activity was 5.47% (inactive).
Same read-out and setting: the figure for `C[C@H](CO)N1C[C@H](C)[C@@H](CN(C)Cc2ccc(Oc3ccccc3)cc2)Oc2c(NC(=O)Nc3cccc4ccccc34)cccc2C1=O` is 26.8% (inactive); for `N#C[C@@H]1[C@@H](c2ccccc2-c2cccc(F)c2)[C@H](CO)N1C(=O)NC1CCCC1` it is 35.9% (inactive); for `COc1ccc(S(=O)(=O)N(C)C[C@H]2Oc3c(NC(=O)Nc4ccccc4)cccc3C(=O)N([C@H](C)CO)C[C@H]2C)cc1` it is 29.2% (inactive).
As to `C[C@@H]1CN([C@H](C)CO)C(=O)Cc2cc(NS(=O)(=O)c3cn(C)cn3)ccc2O[C@@H]1CN(C)Cc1ccc(Cl)c(Cl)c1`, the rescue activity was 34.3% (inactive).
Same read-out and setting: the figure for `Cc1ccc(S(=O)(=O)N(C)C[C@@H]2Oc3ccc(NS(=O)(=O)c4ccc(Cl)cc4)cc3C(=O)N([C@H](C)CO)C[C@@H]2C)cc1` is 27.2% (inactive).
Consider `C[C@@H]1CN([C@H](C)CO)C(=O)Cc2cc(NC(=O)CCCCCC(=O)Nc3ccccc3N)ccc2O[C@H]1CN(C)Cc1ccc(Oc2ccccc2)cc1`, for which the rescue activity was 30.8% (inactive).
In the case of `C[C@@H]1CN([C@H](C)CO)C(=O)c2cccc(NC(=O)c3nc4ccccc4s3)c2O[C@@H]1CN(C)Cc1ccc(C(=O)Nc2ccccc2N)cc1`, the rescue activity was -3.35% (inactive).
The same measure, in the same setting: the value for `N#C[C@@H]1[C@@H](c2ccc(C3=CCCCC3)cc2)[C@H](CO)N1C(=O)NC1CCCC1` was 33.7% (inactive).
As for `C[C@H]1CN([C@@H](C)CO)C(=O)c2cc(C#Cc3ccncc3)cnc2O[C@@H]1CN(C)CC1CCCC1`, the rescue activity is 20.2% (inactive).
For the molecule `N#C[C@H]1[C@@H](c2ccc(-c3cccc(F)c3)cc2)[C@@H](CO)N1C(=O)NC1CCCC1`, the rescue activity was 5.12% (inactive).
As to `N#C[C@@H]1[C@@H](c2ccc(-c3cccc(F)c3)cc2)[C@H](CO)N1C(=O)c1cccnc1`, the rescue activity was 7.76% (inactive).
For the molecule `C[C@@H]1CN([C@H](C)CO)C(=O)Cc2cc(NC(=O)C3CCCCC3)ccc2O[C@H]1CN(C)Cc1ccc(Cl)c(Cl)c1`, the rescue activity was 24.8% (inactive).
Regarding `C[C@H]1CN([C@@H](C)CO)S(=O)(=O)c2ccc(C#CC3CC3)cc2O[C@H]1CN(C)C(=O)Nc1cc(F)ccc1F`, the rescue activity was 23.2% (inactive).
On the same count and under the same terms, the value for `N#C[C@H]1[C@H](c2ccc(-c3cccc(F)c3)cc2)[C@@H](CO)N1C(=O)NC1CCCC1` was 33.1% (inactive).
Take `O=C(C[C@H]1CC[C@@H]2[C@H](COC[C@H](O)CN2CCC(F)(F)F)O1)NCc1ccc(Oc2ccccc2)cc1`: the rescue activity was 23.4% (inactive).
In the case of `CN1C(=O)c2cc(NC(=O)c3ccc(F)c(F)c3)ccc2OC[C@H]2O[C@@H](CC(=O)Nc3ccc4c(c3)COC4)CC[C@@H]21`, the rescue activity is 29.3% (inactive).
For the molecule `N#C[C@@H]1[C@H](c2ccc(-c3cccc(F)c3)cc2)[C@H](CO)N1C(=O)NC1CCCC1`, the rescue activity is -9.1% (inactive).
With `N#C[C@@H]1[C@@H](c2ccc(C#Cc3cccnc3)cc2)[C@@H](CO)N1C(=O)C1CCCC1`, the rescue activity was -15.7% (inactive).
For `CN(C)C(=O)c1cccc(-c2ccc([C@@H]3[C@@H](C#N)N(C(=O)C4CCCC4)[C@@H]3CO)cc2)c1`, the rescue activity was 11.9% (inactive).
With `CCCC#Cc1ccc([C@H]2[C@@H](C#N)N(S(=O)(=O)c3cccc(F)c3)[C@H]2CO)cc1`, the rescue activity was 3.48% (inactive).
As for `C[C@@H]1CN([C@@H](C)CO)C(=O)c2cc(NC(=O)Cc3cn(C)c4ccccc34)ccc2O[C@H]1CN(C)Cc1ccc(C(=O)Nc2ccccc2N)cc1`, the rescue activity was 29.3% (inactive).
`N#C[C@@H]1[C@@H](c2ccc(-c3cccc(F)c3)cc2)[C@@H](CO)N1C(=O)NC1CCCC1`: the rescue activity is 9.41% (inactive).

Staying with this assay, now noted: C2C12 myotubes + simvastatin, ATP luminescence, 48 h; at 21 µM (top of the series).
Regarding `CCCNC(=O)N1[C@@H](C#N)[C@@H](c2ccc(-c3ccccc3F)cc2)[C@@H]1CO`, the rescue activity is -7.41% (inactive).
Take `C[C@H](CO)N1C[C@H](C)[C@H](CN(C)Cc2ccc(Oc3ccccc3)cc2)Oc2ccc(NC(=O)CCCCCC(=O)Nc3ccccc3N)cc2CC1=O`: the rescue activity is -22.7% (inactive).
Turning to `COCC(=O)N1[C@H](C#N)[C@@H](c2ccc(-c3cccc(F)c3)cc2)[C@@H]1CO`, the rescue activity was 7.78% (inactive).
For `C[C@H]1CN([C@@H](C)CO)C(=O)Cc2cc(NS(=O)(=O)c3ccc(Cl)cc3)ccc2O[C@@H]1CN(C)CC1CCCCC1`, the rescue activity was 3.09% (inactive).
Take `C[C@H]1CN([C@@H](C)CO)C(=O)Cc2cc(NC(=O)CCCCCC(=O)Nc3ccccc3N)ccc2O[C@@H]1CN(C)Cc1ccc(Oc2ccccc2)cc1`: the rescue activity is 20% (inactive).
On to `C[C@@H]1CN([C@@H](C)CO)C(=O)Cc2cc(NC(=O)CCCCCC(=O)Nc3ccccc3N)ccc2O[C@@H]1CN(C)Cc1ccc(Oc2ccccc2)cc1`, for which the rescue activity is -22.1% (inactive).
The same measure, in the same setting: the value for `N#C[C@H]1N[C@@H](CO)[C@@H]1c1ccc(-c2cccc(F)c2)cc1` was 0.836% (inactive).
Take `C[C@H]1CN([C@@H](C)CO)C(=O)Cc2cc(NC(=O)CCCCCC(=O)Nc3ccccc3N)ccc2O[C@H]1CN(C)Cc1ccc(C(F)(F)F)cc1`: the rescue activity was 44.5% (inactive).
As to `CCS(=O)(=O)N1[C@H](C#N)[C@@H](c2ccc(-c3cccc(F)c3)cc2)[C@@H]1CO`, the rescue activity was 10.1% (inactive).
Turning to `CC(C)CC#Cc1cnc2c(c1)C(=O)N([C@H](C)CO)C[C@H](C)[C@@H](CN(C)C(=O)Cc1ccccc1)O2`, the rescue activity was -0.381% (inactive).

A further assay deals with C2C12 myotubes + simvastatin, ATP luminescence, 48 h. Described as above.
Conditions: not given
On to `COc1ccc(S(=O)(=O)Nc2cccc3c2O[C@H](CN(C)C(=O)Nc2ccc(F)cc2)[C@H](C)CN([C@@H](C)CO)C3=O)cc1`, for which the AC40 was 14.5 µM.
As to `C[C@H]1CN([C@@H](C)CO)C(=O)Cc2cc(NC(=O)Nc3cccc4ccccc34)ccc2O[C@H]1CN(C)Cc1ccc(C(=O)Nc2ccccc2N)cc1`, the AC40 is 9.64 µM.
On to `Cc1noc(C)c1S(=O)(=O)Nc1ccc2c(c1)CC(=O)N([C@H](C)CO)C[C@@H](C)[C@@H](CN(C)Cc1ccc(-c3ccccc3)cc1)O2`, for which the AC40 is 13.9 µM.
In the case of `C[C@@H]1CN([C@@H](C)CO)C(=O)c2cc(NS(=O)(=O)c3ccc(Cl)cc3)ccc2O[C@H]1CN(C)C(=O)Nc1cccc2ccccc12`, the AC40 is 14.6 µM.
As to `C[C@@H]1CN([C@H](C)CO)C(=O)c2cc(NC(=O)Nc3cccc4ccccc34)ccc2O[C@@H]1CN(C)Cc1ccc(C(=O)Nc2ccccc2N)cc1`, the AC40 was 15.9 µM.
For `Cc1ccc(S(=O)(=O)Nc2ccc3c(c2)CC(=O)N([C@@H](C)CO)C[C@@H](C)[C@H](CN(C)Cc2ccc(-c4ccccc4)cc2)O3)cc1`, the AC40 is 17.5 µM.
Consider `N#C[C@@H]1[C@@H](c2ccc(C#CC3CCCC3)cc2)[C@H](CO)N1S(=O)(=O)c1ccccc1`, for which the AC40 is 20 µM.
In the case of `C[C@@H]1CN([C@H](C)CO)C(=O)Cc2cc(NS(=O)(=O)c3ccc(Cl)cc3)ccc2O[C@H]1CN(C)Cc1ccccc1`, the AC40 was 15.3 µM.
Take `Cc1noc(C)c1S(=O)(=O)Nc1ccc2c(c1)CC(=O)N([C@H](C)CO)C[C@H](C)[C@@H](CN(C)Cc1ccc(C(F)(F)F)cc1)O2`: the AC40 is 16 µM.
Turning to `C[C@H]1CN([C@@H](C)CO)S(=O)(=O)c2ccc(C#Cc3ccc(F)cc3)cc2O[C@@H]1CN(C)S(=O)(=O)c1cn(C)cn1`, the AC40 is 18.9 µM.

Values taken from PubChem BioAssay AID743336 (Broad Institute, 2014).
